The nature of series [1]: Color of the fixer solution in the presence of the compound. In kind it is physicochemical. The source says: 3) “Color” refers to the color of the fixer solution in the presence of the compound.
Series [2] in a line: Solubility of indicator in polymonoguanadine fixer. The following applies: for Solubility @ 0.01 %: 0.01% in 4 wt % polymonoguanadine fixer; for Solubility @ 0.1%: 0.1% in 4 wt % polymonoguanadine fixer.
From the text: Fixer solutions were made by mixing a water based fixer containing a polymonoguanadine cationic polymer with an IR or UV absorber indicator.
2) The solubility is based on the solubility of the compound in a 4 wt % polymonoguanadine fixer.

`CCN(CC)c1ccc2cc(-c3nc4ccccc4[nH]3)c(=O)oc2c1` [Coumarin 7]: the Color entry in series [1] is listed as “Yellow”. In addition, in series [2], the “Solubility @ 0.01 %” value was “No” and the “Solubility @ 0.1%” value is listed as “No”.
On to `CCN(CC)c1ccc2c(C)cc(=O)oc2c1` [7-Diethylamino-4-methyl coumarin, 7-diethylamino-4-methyl coumarin], for which, in series [2], the “Solubility @ 0.01 %” value is listed as “Yes” and the “Solubility @ 0.1%” value is recorded as “Yes”.
As for Variamine Blue, the Color entry in series [1] is “Yellow”. In addition, in series [2], the “Solubility @ 0.01 %” value is listed as “Yes” and the “Solubility @ 0.1%” value was “Yes”.
For `CC1(C)C(/C=C/C=C/C=C/C=C2\N(CCCCS(=O)(=O)O)c3ccc4ccccc4c3C2(C)C)=[N+](CCCCS(=O)(=O)[O-])c2ccc3ccccc3c21` [Indocyanine Green], the Color result in series [1] was “Green”. Moreover, in series [2], the “Solubility @ 0.01 %” value was “No” and the “Solubility @ 0.1%” value is listed as “No”.
On to `Cc1cc2nc3[nH]c(=O)[nH]c(=O)c3nc2cc1C` [Lumichrome], for which the Color entry in series [1] was “Clear”. Further, in series [2], the “Solubility @ 0.01 %” value is reported as “No” and the “Solubility @ 0.1%” value is given as “No”.
With `Cc1cc(=O)oc2cc(O)c(O)cc12` [4-Methylesculetin], the Color result in series [1] is on record as “Clear”. In series [2], the “Solubility @ 0.01 %” value was “No” and the “Solubility @ 0.1%” value is given as “No”.
Take `CCN1/C(=C/C=C2\CCC(/C=C/c3sc4ccc(Cl)cc4[n+]3CC)=C2N(c2ccccc2)c2ccccc2)Sc2ccc(Cl)cc21.[O-][Cl+3]([O-])([O-])[O-]` [IR140]: the Color result in series [1] was “Pale Blue”. In series [2], the “Solubility @ 0.01 %” value is reported as “No” and the “Solubility @ 0.1%” value is listed as “No”.
Take `CCN=C1C=CC(=C(c2ccc(N(CC)CC)cc2)c2ccc(N(CC)CC)cc2)c2ccccc21.Cl` [Victoria Blue BO]: the Color result in series [1] is on record as “Blue”. For the same compound, in series [2], the “Solubility @ 0.01 %” value is listed as “Yes”.
Turning to `CN(C)c1ccc(C=Cc2ccccn2)cc1` [2-[4-(Dimethylamino)styryl]pyridine], the Color result in series [1] is reported as “Orange”. Also, in series [2], the “Solubility @ 0.1%” value is given as “No”.
Consider `Cc1ccc2c(c1)sc(-c1ccc(N(C)C)cc1)[n+]2C.[Cl-]` [Thioflavin T], for which the Color result in series [1] was “Yellow”. Besides, in series [2], the “Solubility @ 0.01 %” value was “Yes” and the “Solubility @ 0.1%” value is on record as “No”.
The matching figures for `Cc1cc(O)nc2cc(N)ccc12` [Carbostyril 124]: “Clear”, “Yes” and “No”.
Turning to `CN(C)c1ccc2c(C(F)(F)F)cc(=O)oc2c1` [Coumarin 152], in series [2], the “Solubility @ 0.01 %” value is “No” and the “Solubility @ 0.1%” value is given as “No”.
Turning to `Cc1ccc2nc(-c3ccc(N=NNc4ccc(-c5nc6ccc(C)c(S(=O)(=O)[O-])c6s5)cc4)cc3)sc2c1S(=O)(=O)[O-].[Na+].[Na+]` [Direct Yellow 9], in series [1], the Color result is on record as “Yellow”. In series [2], the “Solubility @ 0.1%” value was “No”.
With `CCN(CC)CCc1c(C)c2ccc(O)cc2oc1=O.Cl` [3-[2-(diethylamino)ethyl]-7-hydroxy-4-methylcoumarin hydrochloride], the “Solubility @ 0.01 %” value in series [2] is “Yes”.
On to `CN1/C(=C/C=C/C=C/C=C/C2=[N+](C)c3ccccc3C2(C)C)C(C)(C)c2ccccc21.[I-]` [tricarbocyanine, 1,1′,3,3,3′,3′-Hexamethylindotricarbocyanine iodide], for which the “Solubility in polymonoguanadine thermal inkjet fixer” value in series [2] (750 ppm) is recorded as “not soluble”. Besides, the “Solubility (general statement)” value in series [2] (in water / fixer) is reported as “only limited solubility”.
As for `O=S(=O)([O-])c1cc(Nc2nc(Nc3ccccc3)nc(N(CCO)CCO)n2)ccc1/C=C/c1ccc(Nc2nc(Nc3ccccc3)nc(N(CCO)CCO)n2)cc1S(=O)(=O)[O-].[Na+].[Na+]` [FluorescentBrightner28], the Color result in series [1] is on record as “Clear”.
On to `C(=Cc1ccccc1)c1ccccc1` [Stilbene], for which, in series [2] (fixer vehicle that is mostly water), the “Solubility in the fixer vehicle” value was “not soluble”.
Regarding `CCOc1ccc2c(ccc(/C=C/c3cccc([N+](=O)[O-])c3)[n+]2C)c1.COS(=O)(=O)[O-]` [Pinacryptol Yellow], the Color entry in series [1] was “Yellow”. Further, in series [2], the “Solubility @ 0.1%” value is given as “No”.
As for `Nc1ccc(C(=O)O)cc1` [4-Aminobenzoic acid (PABA), 4-Aminobenzoic acid], the Color entry in series [1] is “Clear”. In addition, in series [2], the “Solubility @ 0.01 %” value is listed as “Yes” and the “Solubility @ 0.1%” value is recorded as “Yes”.

Source of the values: US6830310B2, “Detectable markers in cationic polymeric fixers” (Hewlett-Packard Development Company, L.P., priority 2002, dated 2004).
